Series [1] concerns the target T1, human M1 receptor (hCHRM1) (Homo sapiens, UniProt P11229).
T1 construct: expressed in transfected cells
T1 sequence (P11229 1-460): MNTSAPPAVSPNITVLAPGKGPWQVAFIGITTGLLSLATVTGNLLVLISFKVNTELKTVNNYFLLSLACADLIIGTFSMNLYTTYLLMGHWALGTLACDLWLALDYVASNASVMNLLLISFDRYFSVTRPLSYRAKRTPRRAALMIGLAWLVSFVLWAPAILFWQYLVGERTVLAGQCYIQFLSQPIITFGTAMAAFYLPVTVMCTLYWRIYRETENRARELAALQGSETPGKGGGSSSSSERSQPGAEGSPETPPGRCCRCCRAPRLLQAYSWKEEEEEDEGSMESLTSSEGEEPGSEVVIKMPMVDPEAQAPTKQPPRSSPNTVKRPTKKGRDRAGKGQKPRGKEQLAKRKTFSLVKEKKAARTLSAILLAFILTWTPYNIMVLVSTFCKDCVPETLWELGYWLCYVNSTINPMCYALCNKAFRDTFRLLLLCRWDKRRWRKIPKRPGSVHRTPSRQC
Description: Measurement of M1 receptor positive allosteric modulator (M1PAM) activity. The class given is cell-based. The following applies: CHO-K1 cells stably expressing hCHRM1, in the presence of acetylcholine at EC20 concentration, IP1 readout. The protocol: Measurement of M1 Receptor Positive Allosteric Modulator (M1PAM) Activity
The activity of a test compound in the presence of acetylcholine at an EC20 concentration affording about 20% action of the maximum activity was measured as PAM activity. The method therefor is as follows. To a 384-well white plate (Greiner) was added 4 μL of the test compound diluted with IP1 Stimulation buffer (CisBio) containing 0.1% fatty acid-free BSA containing 80 nM acetylcholine. Freeze stock of CHO-K1 cells stably expressing human M1 receptor (hCHRM1) was prepared with IP1 Stimulation buffer (CisBio) containing 0.1% fatty acid-free BSA, 4 μL thereof was added (10,000 cells/well) and the mixture was cultured in a 5% CO2 incubator at 37° C. for 1 hr. 4 μL of a solution (CisBio) containing IP1-d2 and Anti-IP1-cryptate Tb conjugate was added, the mixture was incubated at room temperature for 1 hr, and the time-resolved fluorescence signal was measured on an Envision plate reader (PerkinElmer). The activity (%) of the test compound was calculated by defining the value when acetylcholine was added at the final concentration of 20 μM as 100% and the value when DMSO was added instead of the test compound under acetylcholine-free conditions as 0%, and the EC50 value was calculated as a value of 50% of the concentration dependence curve of the test compound.

The next series relates to Male SD rats. Description: Rat defecation experiment. Type of series: in vivo. The following applies: mean ± standard error. The protocol:
Rat Defecation Experiment
Male SD rats (5-6 weeks old) were used after an acclimation period for about 1 week. A test drug (1 mg/kg or […]) was suspended in 0.5% methylcellulose solution and orally administered at a volume of 5 mL/kg, and the number of feces 2 hr later was counted. Only 0.5% methylcellulose was administered to a solvent administration group.

The nature of a further series: Rat PK test. The following applies: plasma, male SD rats. The class given is in vivo. How it is done: As the rat, 8-week-old male SD rats (Japan SLC, Inc.) were used. They were fed on a solid commercially available diet (CE-2, CLEA Japan, Inc.) and allowed to freely ingest tap water as the drinking water. An intravenous administration solution for the rats was prepared by weighing a test compound, dissolving same in dimethylacetamide (DMA) (Wako Pure Chemical Industries, Ltd.), adding the same volume of 1,3-butanediol (Wako Pure Chemical Industries, Ltd.) and mixing by stirring to give a DMA:1,3-butanediol (1:1, v/v) solution. An oral administration solution was prepared by weighing a test compound, pulverizing same in an agate mortar, and gradually adding 0.5 w/v % aqueous methylcellulose solution to give a suspension. For intravenous administration, the solution was administered into femoral vein of the rats at 0.1 mg/0.5 mL/kg (salt converted to free form). For oral administration, the suspension was administered to the rats at 1 mg/5 mL/kg (salt converted to free form). The cassette dosing method was used for the both administration routes, and the test compound was administered in the following manner.
Compound of Example 1 (Intravenous: 10 Compounds Cassette Administration, Oral: 5 Compounds Cassette Administration)
In the case of intravenous administration, blood samples were collected from the tail vein at 5, 10, 15, 30 min, 1, 2, 4, 8 hr after administration, an anticoagulation treatment with heparin sodium (Shimizu Pharmaceutical Co., Ltd.) was performed, and plasma was collected after centrifugation and subjected to the measurement of drug concentration. In the case of oral administration, blood samples were collected from the tail vein at 15, 30 min, 1, 2, 4, 8 hr after administration, an anticoagulation treatment with heparin sodium was performed, and plasma was collected after centrifugation and subjected to the measurement of drug concentration.
All drug concentrations were measured by LC-MS/MS analysis. […]

A further series addresses T2, MDR1 (Homo sapiens, UniProt P08183).
T2 construct: expressed in transfected cells
The series is described as follows: MDR1 membrane permeability test. The note with it: LLC-PK1, pH 7.4, 10 μmol/L test compound, Papp B to A / Papp A to B, read-out: Efflux ratio (ER). Type of series: in vitro ADME. The protocol:
MDR1 Membrane Permeability Test
When MDR1 is expressed in excess in LLC-PK1 cell, which is a polar cell, MDR1 is localized in apical membrane (A), thus promoting transcellular transport from the basement membrane side (B) toward direction A. When a ratio to the transcellular transport in the opposite direction is taken and a ratio to a control cell in which a mock vector has been introduced is further taken, an efflux ratio of MDR1 to simple diffusion (corrected efflux ratio) is calculated. Similarly, when a brain/plasma concentration ratio in Mdr1(−/−) mouse is divided by a brain/plasma concentration ratio in wild-type mouse, an efflux ratio of Mdr1 to simple diffusion in blood-brain barrier (BBB) (Kp, brain ratio, higher value means lower central nervous system permeability) is calculated. […]
Transcellular transport was performed according to the report of Sugimoto et al. (Reference 3). […] After 1 hr, the sample was collected from the side opposite to the side where the drug solution was added, and the concentration of the test compound was measured by LC-MS/MS. […]
Papp, A to B and Papp, B to A (apparent permeability) were calculated from the formula (1), and the efflux ratio (ER) was calculated from the formula (2). […]

In a further series the test system is Male beagle dogs. Description: Experiment on gastrointestinal motility in dogs. The class given is in vivo, dog. The following applies: 0.03 mg/kg orally, 8 hr after administration, compared with the solvent administration group. The protocol: Experiment on Gastrointestinal Motility in Dogs
Male beagle dogs each equipped with four pressure transducers (one in the ileum and three in the large intestine) were used after an acclimation period for 15 days after surgery. The compound of Example 1 (0.03 mg/kg) was suspended in 0.5% methylcellulose solution and orally administered at a volume of 10 mL/kg. Only 0.5% methylcellulose was administered to a solvent administration group.
HAPC (abbreviation for high amplitude propagated contractions which mean strong contractions propagated from the oral side to the anal side of the large intestine during defecation. Intestinal contraction pattern observed during normal defecation.) at 8 hr after administration was counted using a telemeter for gastrointestinal motility (GTS-850, STARMEDICAL).

These results are taken from patent US12012419B2, “Heterocyclic compound” (Takeda Pharmaceutical Company Limited, priority 2018, dated 2024).

T2 sequence (P08183 whole entry): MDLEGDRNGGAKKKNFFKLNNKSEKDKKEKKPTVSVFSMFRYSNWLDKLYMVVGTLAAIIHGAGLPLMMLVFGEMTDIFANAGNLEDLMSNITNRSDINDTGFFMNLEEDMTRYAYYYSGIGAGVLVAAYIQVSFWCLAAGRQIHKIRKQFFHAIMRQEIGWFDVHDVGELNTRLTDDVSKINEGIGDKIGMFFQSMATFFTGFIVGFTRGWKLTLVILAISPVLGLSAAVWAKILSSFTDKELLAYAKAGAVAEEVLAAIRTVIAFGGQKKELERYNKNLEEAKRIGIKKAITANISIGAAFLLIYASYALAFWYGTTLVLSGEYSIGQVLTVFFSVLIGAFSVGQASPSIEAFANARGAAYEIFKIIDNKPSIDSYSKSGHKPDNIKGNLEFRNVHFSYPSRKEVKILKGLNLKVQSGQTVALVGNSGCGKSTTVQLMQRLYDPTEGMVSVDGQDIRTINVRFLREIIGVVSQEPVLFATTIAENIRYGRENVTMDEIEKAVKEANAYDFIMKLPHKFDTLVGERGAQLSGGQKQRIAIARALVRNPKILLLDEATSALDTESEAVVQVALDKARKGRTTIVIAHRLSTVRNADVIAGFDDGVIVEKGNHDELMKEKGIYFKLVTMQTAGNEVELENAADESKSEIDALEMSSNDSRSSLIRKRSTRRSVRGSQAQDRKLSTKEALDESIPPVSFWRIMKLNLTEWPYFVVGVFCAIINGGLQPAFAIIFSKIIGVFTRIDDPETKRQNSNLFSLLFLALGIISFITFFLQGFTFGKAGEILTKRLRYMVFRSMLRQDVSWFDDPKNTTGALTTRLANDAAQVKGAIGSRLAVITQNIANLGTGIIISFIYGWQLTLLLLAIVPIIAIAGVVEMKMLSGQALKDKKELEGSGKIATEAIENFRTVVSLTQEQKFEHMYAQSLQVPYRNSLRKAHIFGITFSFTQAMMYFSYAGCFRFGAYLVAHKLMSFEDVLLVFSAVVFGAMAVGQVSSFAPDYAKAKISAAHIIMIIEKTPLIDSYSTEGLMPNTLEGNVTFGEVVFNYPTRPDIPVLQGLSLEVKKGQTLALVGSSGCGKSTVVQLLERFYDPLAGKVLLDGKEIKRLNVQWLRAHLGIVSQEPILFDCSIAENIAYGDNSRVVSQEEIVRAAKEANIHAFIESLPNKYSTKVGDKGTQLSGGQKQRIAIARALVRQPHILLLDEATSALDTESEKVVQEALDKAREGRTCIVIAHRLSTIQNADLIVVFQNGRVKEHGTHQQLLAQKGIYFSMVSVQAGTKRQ

Take `COCCNC(=O)c1ccc(Cc2cc3c(c4c2OCC4)OCN([C@H]2CCOC[C@@H]2O)C3=O)cc1F` [Example 1, 1,5-anhydro-2,3-dideoxy-3-[6-({3-fluoro-4-[(2-methoxyethyl)carbamoyl]phenyl}methyl)-4-oxo-8,9-dihydro-2H-furo[2,3-h][1,3]benzoxazin-3(4H)-yl]-L-threo-pentitol]: in series [1], the EC50 was determined as 0.31 nM. Besides, the “number of feces 2 hr later” value in the series with Male SD rats (1 mg/kg orally) was found to be 14.8 ± 1.2; in the series on Male SD rats (3 mg/kg orally) it was 13.9 ± 2.1. This compound had an MRT in “Rat PK test” (intravenous 0.1 mg/kg, 10 compounds cassette administration) of 48 min. The clearance in “Rat PK test” (intravenous 0.1 mg/kg, 10 compounds cassette administration, read-out: CL total (converted)) is 12.6 mL/min/kg. In addition, the Tmax in “Rat PK test” (oral 1 mg/kg, 5 compounds cassette administration) came out at 60 min. Further, the efflux ratio at 1 h, 10 μmol/L on MDR1 was determined as 15. Further, the “number of HAPCs in the intestinal tract” value in the series on Male beagle dogs is given as “an increase in the number of HAPCs in the intestinal tract was observed”.

A word on the EC50: it is the concentration giving half of the maximal effect. As usually defined, the MRT is a mean duration of stay, worked out from the concentration-time curve. The Tmax is the time at which the peak concentration occurs.
